Legend:
Type in all cases: cell-based, mouse
Sox2 = experiment: Real-time PCR, Sox2 gene expression in ES cells; settings: for Sox2 gene expression level: ES cells, control group = 100%
Description: The following steps were conducted in order to culture ES cells: • (1) preparing a stem cell medium: DMEM+15% heat-inactivated FBS+NEAA (0.1 mM)+L-glutamine (2 mM)+β-mercaptoethanol (0.2 mM); • (2) preparing a BP-containing solution: dissolving BP into DMSO to form a BP-containing solution (100 mg/ml), and storing the solution at −20° C.; • (3) adding different amounts of the BP-containing solution in step (2) into the stem cell medium in step (1) to form different BP-containing mediums, wherein the amount of BP were about 5, 10, 20 or 40 μg per milliliter of the stem cell medium respectively (i.e. the experimental group mediums: BP5, BP10, BP20 and BP40); and • (4) using the BP-containing medium of in step (3) to culture a ES cell (retrieved from the embryos in the blastula stage of 129sv/J mice) at 37° C., 5% CO2 and 95% humidity on the feeder cells provided by Example 1.
(§1) An experimental group medium (BP5, BP10, BP20 or BP40) and a control group medium (without BP) were added respectively to perform the following steps. ES cells were cultured with an initial density of 1×10^4 per well in a 6-well culture dish. The medium was removed until the cells growth to be about 70 to 80% confluence, and then 1 ml TRIzol (Invitrogen) was added into each well. The cells were incubated for 5 minutes, and then was scraped by a spatula and placed into a 1.5 ml microtube to be lysed adequately. Chloroform (0.2 ml) was added into the microtubes. The mixture was shaken up and down for 15 seconds, and then incubated at room temperature for 2 to 3 minutes. Thereafter, the mixture was centrifuged at 12000 rpm at 4° C. for 15 minutes, and the supernatant was removed into another 1.5 ml microtube and isopropanol (0.5 ml) was added into the microtube with well mixing. The mixture was incubated at room temperature for 10 minutes and then centrifuged at 12000 rpm at 4° C. for 10 minutes. The supernatant was then removed. One ml of 70% ethanol containing DEPC.H2O was used to wash the remaining sediment. The sediment was centrifuged at 7500 rpm at 4° C. for 5 minutes. The supernatant was removed. The sediment was dried by vacuum suction. The dried samples were dissolved in about 0.01 to 0.02 ml of DEPC.H2O to obtain the experimental group RNA and control group RNA. Both groups were stored at −80° C.
(§2) The OD value of RNA samples in both groups obtained from the above Experiment I were measured at a wavelength of 260 nm (RNA: OD260=1 for a 40 μg/mL solution). Each RNA sample (2 μl) was added with RNA-free water until the volume of the sample reached 10 μl. Two μl oligo (dT) (100 μg/ml) was added into each sample, and the samples were incubated at 65° C. for 5 minutes. Then, the samples were immediately placed on ice and spun down. Next, 6.5 μl of a reaction solution [4 μl of 5× buffer+1 μl of 0.1 M DTT+1 μl of RNase out+0.5 μl of SSIII (Invitrogen)] was added into each of the samples, and the samples were incubated at 50° C. for about 30 to 60 minutes and at 75° C. for 15 minutes to obtain the experimental group cDNA and control group cDNA. Both groups were stored at −80° C.
This experiment was used to detect the expression levels of ES cell-related genes, i.e., Oct4 and Sox2, etc. […] The cycle threshold (CT) values were measured.

Jak2 = experiment: Western blot assay, Jak2 protein in ES cells; settings: for Jak2 Protein expression level: ES cells, control group = 100%
From the text: According to the known research at present, Jak2 and Stat3 proteins could be phosphorylated to form the active forms, and the Jak2-Stat3 signaling pathway will be activated when Jak2 and Stat3 were phosphorylated.
An experimental group medium (BP5 or BP10), a LIF-containing medium (without BP), and a control group medium (without BP) were used respectively to culture ES cells with an initial density of 1×10^4 per well in a 6-well culture dish. The medium was removed until the cells growth to be about 70 to 80% confluence. The proteins were extracted to conduct the Western blot assay by using rabbit anti-Jak2 antibody (Cell Signaling Technology), mouse anti-phospho-Jak2 antibody (Cell Signaling Technology), rabbit anti-Stat3 antibody (BD) and rabbit anti-phospho-Stat3 antibody (Cell Signaling Technology), to determine whether BP would affect the protein expression levels of the genes in the Jak-Stat3 signaling pathway.

EPO = experiment: Real-time PCR, cytokine gene EPO in ES cells; settings: for EPO mRNA expression level: ES cells, control group = 100%
Description: as §1, §2
This experiment was used to detect the expression levels of ES cell-related genes, i.e., Oct4 and Sox2, etc. First, 4 μl of the experimental group cDNA or control group cDNA was added into each well of a 96-well micro-reaction plate, and mixed with 6 μl of a reaction solution [0.5 μl of 6 μM forward primer+0.5 μl of 6 μM reverse primer+5 μl of SYBR Green PCR Master mix (Roche)], wherein the SYBR Green PCR Master mix included the reagents needed for Q-PCR, such as dNTPs, MgCl, Taq DNA polymerase and 2×SYBR® Green I solution. […] The cycle threshold (CT) values were measured. […]

iPS cells = experiment: Embryoid body formation and differentiation of the generated iPS cells; settings: iPS cells (T+P), BP10 medium, Tuj1, α-SMA, Gata4 staining
Description: An experimental group medium (BP10) was used to culture ES cells with an initial density of 1×10^4 per well in a 6-well culture dish. The ES cells were passaged 3 times and incubated for another 2 to 3 days in the Ultra Low Cluster Plate (Costar) containing the embryoid body formation medium [DMEM+20% FBS+β-mercaptoethanol (1 mM)+1% L-glutamine+1% NEAA], and then the embryoid body formation was observed. The embryoid bodies were placed into another 24-well culture dish (5 to 6 embryoid bodies/well) and incubated for another 3 days. Next, immunofluorescence staining was conducted to detect cells with an anti-Tuj1 antibody (ectoderm marker), an anti-α-SMA antibody (mesoderm marker) and an anti-Gata4 antibody (endoderm marker).
In addition, the iPS cells (T+P) were cultured by the steps shown in Example 7 to observe the embryoid body formation and differentiation.

[1] = BP10 medium (about 10 μg BP/ml)

Compound: CCCC=C1OC(=O)c2ccccc21 [BP, n-butylidenephthalide]
- Sox2 gene expression level (Sox2; BP5 medium (about 5 μg BP/ml)): 91%
- Sox2 gene expression level (Sox2; [1]): 245%
- Sox2 gene expression level (Sox2; BP20 medium (about 20 μg BP/ml)): 210%
- Sox2 gene expression level (Sox2; BP40 medium (about 40 μg BP/ml)): 140%
- gene expression level of Sox2 (Sox2; BP-containing ES cell culture medium vs control group, result in words): significantly up-regulated
- Jak2 Protein expression level (Jak2; BP5 medium (about 5 μg BP/ml)): 109%
- Jak2 Protein expression level (Jak2; [1]): 134%
- total protein expression and phosphorylated protein expression level of Jak2 (Jak2; ES cell medium containing BP, result in words): increased significantly
- EPO mRNA expression level (EPO; BP5 medium (about 5 μg BP/ml)): 97%
- EPO mRNA expression level (EPO; [1]): 196%
- mRNA expression level of EPO (EPO; BP-containing ES cell medium, result in words): significantly up-regulated
- embryoid body formation and differentiation of the iPS cells (iPS cells): can differentiate into three germ layer cells

Compound: LIF: multifunctional cell factor used to maintain pluripotency of stem cells; LIF-containing medium (4 ng/ml, without BP) as comparison
- Jak2 Protein expression level (Jak2; LIF-containing medium (LIF 4 ng/ml, without BP)): 62%
- EPO mRNA expression level (EPO; LIF-containing medium (LIF 4 ng/ml)): 91%

From patent US20150056702A1, “METHOD AND KIT FOR CULTURING STEM CELLS” (China Medical University, priority 2013, published 2015)
